In ChEMBL document CHEMBL3352722, “Calcitonin gene-related peptide receptor antagonists: new therapeutic agents for migraine” (J Med Chem, 2014):
pIC50, pKi: −log10 of the molar value.

Tests used:
[1] = species: Homo sapiens; experiment: Antimigraine activity in migraine patient assessed as pain freedom incidence at 100 mg after 2 hrs (reference value: 15.3%); assay type: functional
[2] = species: Homo sapiens; experiment: Antimigraine activity in migraine patient assessed as pain relief incidence at 100 mg after 2 hrs (reference value: 51.2%); assay type: functional
[3] = species: Homo sapiens; experiment: Antimigraine activity in migraine patient assessed as pain freedom incidence at 40 mg after 2 hrs (reference value: 8.6%); assay type: functional
[4] = species: Homo sapiens; experiment: Antimigraine activity in migraine patient assessed as pain relief incidence at 40 mg after 2 hrs (reference value: 18.6%); assay type: functional
[5] = molecular target: Calcitonin gene-related peptide type 1 receptor (Homo sapiens, UniProt O60894+Q16602); experiment: Antagonist activity against human CGRP receptor
[6] = tested on: Homo sapiens; experiment: In vivo receptor occupancy at CGRP receptor in human brain at 140 mg using […]-labeled compound; assay type: functional
[7] = tested on: Homo sapiens; experiment: In vivo receptor occupancy at CGRP receptor in human brain at 1120 mg using […]-labeled compound; assay type: functional
[8] = species: Homo sapiens; experiment: Antimigraine activity in migraine patient assessed as response rate for pain freedom at 200 mg after 2 hrs; assay type: functional
[9] = species: Homo sapiens; experiment: Antimigraine activity in migraine patient assessed as response rate for pain freedom at 400 mg after 2 hrs; assay type: functional
[10] = species: Homo sapiens; experiment: Antimigraine activity in migraine patient assessed as response rate for pain freedom at 50 to 400 mg after 2 hrs; assay type: functional
[11] = species: Homo sapiens; experiment: Antimigraine activity in migraine patient assessed as pain relief incidence at 400 mg after 2 hrs (reference value: 18.6%); assay type: functional
[12] = species: Homo sapiens; experiment: Antimigraine activity in migraine patient assessed as response rate for pain freedom at 50 mg after 2 hrs; assay type: functional
[13] = species: Homo sapiens; experiment: Antimigraine activity in migraine patient assessed as pain freedom incidence at 200 mg after 2 hrs (reference value: 8.6%); assay type: functional
[14] = species: Homo sapiens; experiment: Antimigraine activity in migraine patient assessed as pain freedom incidence at 400 mg after 2 hrs (reference value: 8.6%); assay type: functional
[15] = species: Homo sapiens; experiment: Antimigraine activity in migraine patient assessed as pain relief incidence at 200 mg after 2 hrs (reference value: 18.6%); assay type: functional

Chain of Calcitonin gene-related peptide type 1 receptor (Q16602 whole entry, one chain of several): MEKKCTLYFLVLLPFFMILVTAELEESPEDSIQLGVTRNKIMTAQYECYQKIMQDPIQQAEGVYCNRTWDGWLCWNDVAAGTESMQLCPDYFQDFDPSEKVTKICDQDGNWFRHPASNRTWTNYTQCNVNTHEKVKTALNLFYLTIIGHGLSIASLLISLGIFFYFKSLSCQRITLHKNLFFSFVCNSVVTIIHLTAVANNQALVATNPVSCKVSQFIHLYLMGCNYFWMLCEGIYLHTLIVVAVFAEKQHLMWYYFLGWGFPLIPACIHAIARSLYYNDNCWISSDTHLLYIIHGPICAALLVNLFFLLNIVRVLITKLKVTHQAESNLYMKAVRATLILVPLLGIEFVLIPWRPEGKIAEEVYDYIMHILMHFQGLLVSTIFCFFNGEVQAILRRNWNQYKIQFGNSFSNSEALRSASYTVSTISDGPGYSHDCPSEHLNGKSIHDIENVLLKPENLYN

## CNS(=O)(=O)Cc1ccc2[nH]cc(CCN(C)C)c2c1
[1]
  Activity: 35%
[2]
  Activity: 72%

## CN1CCC[C@@H]1Cc1c[nH]c2ccc(CCS(=O)(=O)c3ccccc3)cc12
[3]
  Activity: 34.8%
[4]
  Activity: 56.5%

## NCCCC[C@H](NC(=O)[C@@H](Cc1cc(Br)c(O)c(Br)c1)NC(=O)CCCc1ccccc1)C(=O)NCCc1ccccc1
[5]
  pIC50: 4.77

## NCCCC[C@H](NC(=O)[C@@H](Cc1cc(Br)c(O)c(Br)c1)NC(=O)N1CCC(n2c(=O)oc3ccccc32)CC1)C(=O)N1CCN(c2ccncc2)CC1
[5]
  pIC50: 7.36

## C[C@@]1(c2cc(F)cc(F)c2)CN([11CH3])C2(CCCC2)C(=O)N1CC(=O)Nc1ccc2c(c1)C[C@@]1(C2)C(=O)Nc2ncccc21
[6]
  Occ: <=10%
[7]
  Occ: 43%

## Cc1cc(C[C@@H](OC(=O)N2CCC(N3CCc4ccccc4NC3=O)CC2)C(=O)N2CCC(N3CCOCC3)CC2)cc(C)c1O [BI-44370]
[5]
  pKi: 9.52
[8]
  Activity: 21.5%
[9]
  Activity: 27.4%
[10]
  Activity: 34.8%
[11]
  Activity: 56.2%
[12]
  Activity: 7.8%
[13]
  Activity: 21.5%
[14]
  Activity: 27.4%
[15]
  Activity: 50.8%
